Measured values reported in ChEMBL document CHEMBL1909046, “DrugMatrix in vitro pharmacology data”.

Legend:
Caspase-1 = target: T1, Caspase-1 (Homo sapiens, UniProt P29466); design: species or system Escherichia coli;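 further: Caspase-1 enzyme inhibition assay with a peptide substrate; in other assays of this panel Not Active means under 50% inhibition at 10 µM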
T1 sequence (P29466 whole entry): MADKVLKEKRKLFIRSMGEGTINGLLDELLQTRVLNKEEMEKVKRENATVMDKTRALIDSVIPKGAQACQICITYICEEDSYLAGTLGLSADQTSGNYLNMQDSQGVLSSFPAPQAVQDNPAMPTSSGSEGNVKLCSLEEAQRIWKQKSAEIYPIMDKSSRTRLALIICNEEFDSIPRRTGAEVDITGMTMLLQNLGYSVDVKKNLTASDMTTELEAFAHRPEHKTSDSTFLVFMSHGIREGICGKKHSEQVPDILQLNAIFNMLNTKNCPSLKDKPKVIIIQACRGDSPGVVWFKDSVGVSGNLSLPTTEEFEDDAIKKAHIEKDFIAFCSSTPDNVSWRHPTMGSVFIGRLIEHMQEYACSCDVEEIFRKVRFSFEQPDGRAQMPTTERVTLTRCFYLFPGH

[1] = DRUGMATRIX: Glutamate, Kainate radioligand binding (ligand: [3H] Kainic acid); format: cell membranes, Rattus norvegicus, Wistar, Brain, Membrane; details: Not Active = under 50% inhibition at 10 µM
[2] = target: Protein kinase C alpha type (Homo sapiens, UniProt P17252); format: cell-based; details: sf9;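 further: inhibition of PKCalpha kinase activity measured in an enzyme assay with histone as the phosphorylation substrate; in other assays of this panel Not Active means under 50% inhibition at 10 µM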
[3] = target: T2, 3-hydroxy-3-methylglutaryl-coenzyme A reductase (Homo sapiens, UniProt P04035); design: species or system Escherichia coli;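 further: enzyme inhibition assay of HMG-CoA reductase using radiolabeled [14C]HMG-CoA as substrate; in other assays of this panel Not Active means under 50% inhibition at 10 µM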
T2 sequence (P04035 whole entry): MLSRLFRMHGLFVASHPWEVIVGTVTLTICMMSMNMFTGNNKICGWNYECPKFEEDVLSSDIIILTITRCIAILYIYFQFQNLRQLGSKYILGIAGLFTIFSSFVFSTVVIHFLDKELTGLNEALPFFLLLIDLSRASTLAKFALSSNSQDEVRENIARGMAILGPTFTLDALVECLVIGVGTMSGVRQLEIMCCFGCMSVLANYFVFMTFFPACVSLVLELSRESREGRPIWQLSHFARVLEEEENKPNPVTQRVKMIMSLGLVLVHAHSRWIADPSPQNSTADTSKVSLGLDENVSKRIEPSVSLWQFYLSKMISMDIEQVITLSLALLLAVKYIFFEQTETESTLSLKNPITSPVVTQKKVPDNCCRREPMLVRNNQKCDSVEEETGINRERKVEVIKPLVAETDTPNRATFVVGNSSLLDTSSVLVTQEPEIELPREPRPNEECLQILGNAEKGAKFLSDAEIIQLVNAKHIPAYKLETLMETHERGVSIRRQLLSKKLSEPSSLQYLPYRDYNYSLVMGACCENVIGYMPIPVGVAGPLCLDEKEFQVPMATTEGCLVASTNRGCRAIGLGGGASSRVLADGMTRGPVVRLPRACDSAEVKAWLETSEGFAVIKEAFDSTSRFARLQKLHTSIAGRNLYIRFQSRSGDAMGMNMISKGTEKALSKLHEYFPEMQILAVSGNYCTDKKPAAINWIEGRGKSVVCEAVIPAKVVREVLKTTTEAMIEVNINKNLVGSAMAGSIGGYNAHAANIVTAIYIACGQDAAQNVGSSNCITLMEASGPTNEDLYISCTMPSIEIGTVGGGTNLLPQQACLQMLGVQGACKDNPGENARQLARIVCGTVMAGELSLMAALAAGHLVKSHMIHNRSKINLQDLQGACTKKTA

Substance-P receptor = Substance-P receptor (Homo sapiens, UniProt P25103); format: cell membranes, CHO, Membrane; details: cho; further: in other assays of this panel Not Active means under 50% inhibition at 10 µM
Sequence of Substance-P receptor (P25103 whole entry): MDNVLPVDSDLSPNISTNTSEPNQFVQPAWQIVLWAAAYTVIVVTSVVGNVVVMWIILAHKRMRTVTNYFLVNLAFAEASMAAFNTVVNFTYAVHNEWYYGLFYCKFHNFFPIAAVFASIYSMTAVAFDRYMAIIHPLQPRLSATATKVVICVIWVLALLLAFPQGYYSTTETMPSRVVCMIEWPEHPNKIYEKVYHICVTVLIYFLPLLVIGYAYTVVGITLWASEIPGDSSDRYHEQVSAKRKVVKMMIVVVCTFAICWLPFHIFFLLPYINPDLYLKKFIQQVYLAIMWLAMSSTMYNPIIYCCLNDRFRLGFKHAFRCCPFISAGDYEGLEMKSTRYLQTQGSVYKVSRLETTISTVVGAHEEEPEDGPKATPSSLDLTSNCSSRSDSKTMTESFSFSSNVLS

[4] = target: T3, Muscarinic acetylcholine receptor M2 (Homo sapiens, UniProt P08172); format: cell membranes, CHO-K1, Membrane; further: in other assays of this panel Not Active means under 50% inhibition at 10 µM
T3 sequence (P08172 whole entry): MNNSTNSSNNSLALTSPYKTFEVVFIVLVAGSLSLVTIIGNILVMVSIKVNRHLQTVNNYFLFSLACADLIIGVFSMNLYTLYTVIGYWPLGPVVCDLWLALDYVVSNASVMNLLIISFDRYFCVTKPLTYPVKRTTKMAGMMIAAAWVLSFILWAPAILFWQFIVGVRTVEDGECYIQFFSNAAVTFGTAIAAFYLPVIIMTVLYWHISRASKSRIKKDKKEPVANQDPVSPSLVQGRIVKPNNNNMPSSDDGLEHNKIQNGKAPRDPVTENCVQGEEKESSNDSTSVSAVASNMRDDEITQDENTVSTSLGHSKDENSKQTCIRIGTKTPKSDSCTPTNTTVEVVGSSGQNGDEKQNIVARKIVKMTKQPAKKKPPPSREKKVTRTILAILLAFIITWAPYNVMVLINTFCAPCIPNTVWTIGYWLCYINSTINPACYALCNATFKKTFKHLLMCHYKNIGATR

Insulin receptor = Insulin receptor (Rattus norvegicus, UniProt P15127); format: cell membranes, Wistar, Liver, Membrane; further: in other assays of this panel Not Active means under 50% inhibition at 10 µM
Sequence of Insulin receptor (P15127 27-759 limits assumed): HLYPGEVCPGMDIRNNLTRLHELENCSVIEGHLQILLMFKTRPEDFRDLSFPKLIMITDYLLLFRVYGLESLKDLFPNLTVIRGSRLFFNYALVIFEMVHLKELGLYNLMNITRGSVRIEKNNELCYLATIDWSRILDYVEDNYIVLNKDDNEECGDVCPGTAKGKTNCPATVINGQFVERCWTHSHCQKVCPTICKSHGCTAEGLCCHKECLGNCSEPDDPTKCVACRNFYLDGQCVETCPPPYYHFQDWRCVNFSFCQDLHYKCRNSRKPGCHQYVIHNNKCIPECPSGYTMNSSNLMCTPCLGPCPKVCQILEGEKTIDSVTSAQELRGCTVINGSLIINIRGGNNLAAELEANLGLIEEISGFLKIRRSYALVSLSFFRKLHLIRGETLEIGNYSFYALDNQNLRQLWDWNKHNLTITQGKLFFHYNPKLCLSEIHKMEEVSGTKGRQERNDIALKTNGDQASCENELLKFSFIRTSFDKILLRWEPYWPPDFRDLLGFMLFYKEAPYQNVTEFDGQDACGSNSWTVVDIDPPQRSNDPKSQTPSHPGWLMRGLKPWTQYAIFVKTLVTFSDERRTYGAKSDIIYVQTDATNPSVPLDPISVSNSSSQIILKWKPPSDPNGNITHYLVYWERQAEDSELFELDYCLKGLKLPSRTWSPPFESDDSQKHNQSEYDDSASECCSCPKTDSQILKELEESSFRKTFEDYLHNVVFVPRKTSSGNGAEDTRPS
Sequence of Insulin receptor (P15127 764-1383 limits assumed): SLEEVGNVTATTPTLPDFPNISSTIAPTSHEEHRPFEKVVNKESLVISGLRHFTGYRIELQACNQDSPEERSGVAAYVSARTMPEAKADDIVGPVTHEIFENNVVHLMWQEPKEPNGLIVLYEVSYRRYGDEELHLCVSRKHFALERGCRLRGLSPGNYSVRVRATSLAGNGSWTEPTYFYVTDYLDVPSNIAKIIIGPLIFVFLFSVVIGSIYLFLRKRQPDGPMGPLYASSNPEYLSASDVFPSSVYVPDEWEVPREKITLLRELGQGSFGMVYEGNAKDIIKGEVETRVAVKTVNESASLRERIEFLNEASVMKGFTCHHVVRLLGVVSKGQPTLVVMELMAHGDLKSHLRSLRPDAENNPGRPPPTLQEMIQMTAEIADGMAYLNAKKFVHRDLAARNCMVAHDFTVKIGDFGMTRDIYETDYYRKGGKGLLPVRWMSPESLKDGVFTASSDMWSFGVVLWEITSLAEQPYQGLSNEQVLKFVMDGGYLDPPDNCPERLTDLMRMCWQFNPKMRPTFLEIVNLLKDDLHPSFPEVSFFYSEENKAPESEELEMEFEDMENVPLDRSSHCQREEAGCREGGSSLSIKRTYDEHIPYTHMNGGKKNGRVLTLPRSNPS

[5] = DRUGMATRIX: Tumor Necrosis Factor (TNF), Non-Selective radioligand binding (ligand: [125I] TNF-alpha); format: cell membranes, Membrane; details: u-937; Not Active = under 50% inhibition at 10 µM
[6] = target: Matrix metalloproteinase-9 (Homo sapiens, UniProt P14780); format: cell-based
Sequence of Matrix metalloproteinase-9 (P14780 whole entry): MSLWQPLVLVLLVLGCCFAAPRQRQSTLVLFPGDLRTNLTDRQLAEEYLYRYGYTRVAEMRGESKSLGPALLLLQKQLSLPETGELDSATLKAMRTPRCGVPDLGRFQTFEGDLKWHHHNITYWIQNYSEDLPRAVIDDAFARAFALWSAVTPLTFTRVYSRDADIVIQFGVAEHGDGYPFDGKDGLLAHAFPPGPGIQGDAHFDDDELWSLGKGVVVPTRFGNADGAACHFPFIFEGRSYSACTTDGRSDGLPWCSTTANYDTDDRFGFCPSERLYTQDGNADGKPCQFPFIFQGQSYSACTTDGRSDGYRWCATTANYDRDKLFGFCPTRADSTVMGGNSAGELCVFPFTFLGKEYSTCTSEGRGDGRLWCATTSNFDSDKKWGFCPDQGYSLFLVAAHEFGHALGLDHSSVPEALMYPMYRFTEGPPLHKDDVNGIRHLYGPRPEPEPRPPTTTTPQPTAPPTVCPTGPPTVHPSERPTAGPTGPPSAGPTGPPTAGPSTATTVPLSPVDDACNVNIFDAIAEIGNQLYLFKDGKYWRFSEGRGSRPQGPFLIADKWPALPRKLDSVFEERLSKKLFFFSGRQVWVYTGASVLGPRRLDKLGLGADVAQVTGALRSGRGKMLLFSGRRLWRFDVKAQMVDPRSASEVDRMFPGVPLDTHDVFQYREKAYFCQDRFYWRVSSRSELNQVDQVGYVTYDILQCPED

Q: What does the source list for `CCCNC(C)C(=O)Nc1ccccc1C` (stereo not drawn) [PRILOCAINE]?
A: IC50 (Caspase-1): Not Active; IC50 [1]: Not Active; Ki [1]: Not Active; IC50 [2]: Not Active; IC50 [3]: Not Active; IC50 (Substance-P receptor): Not Active; IC50 ([4]; cho-k1): Not Active; IC50 (Insulin receptor): Not Active; IC50 [5]: Not Active; Ki [5]: Not Active; IC50 [6]: Not Active

Q: For `CCN(CC)CCNC(=O)c1ccc(N)cc1` [PROCAINAMIDE], which IC50 (Caspase-1) is on record?
A: Not Active

Q: And the IC50 [1]?
A: Not Active

Q: And the Ki [1]?
A: Not Active

Q: And the IC50 [2]?
A: Not Active

Q: What about the IC50 [3] of the same molecule?
A: Not Active

Q: What about the IC50 (Substance-P receptor) of the same molecule?
A: Not Active

Q: And the IC50 ([4]; cho-k1)?
A: Not Active

Q: And the IC50 (Insulin receptor)?
A: Not Active

Q: What about the IC50 [5] of the same molecule?
A: Not Active

Q: What about the Ki [5] of the same molecule?
A: Not Active

Q: What about the IC50 [6] of the same molecule?
A: Not Active

Q: For `CCN(CC)CCCC(C)Nc1c2ccc(Cl)cc2nc2ccc(OC)cc12` (stereo not drawn) [QUINACRINE], which IC50 (Caspase-1) is on record?
A: Not Active

Q: And the IC50 [1]?
A: Not Active

Q: What about the Ki [1] of the same molecule?
A: Not Active

Q: What about the IC50 [2] of the same molecule?
A: Not Active

Q: What about the IC50 [3] of the same molecule?
A: Not Active

Q: What about the IC50 (Substance-P receptor) of the same molecule?
A: Not Active

Q: And the IC50 ([4]; read-out: IC50)?
A: 0.964 µM

Q: And the Ki ([4]; read-out: Ki)?
A: 0.343 µM

Q: And the IC50 (Insulin receptor)?
A: Not Active

Q: And the IC50 [5]?
A: Not Active

Q: What about the Ki [5] of the same molecule?
A: Not Active

Q: What about the IC50 [6] of the same molecule?
A: Not Active

Q: Which IC50 (Caspase-1) does the source give for `C[C@]12C=CC(=O)C=C1CC[C@H]1[C@@H]3C[C@@H](O)[C@](O)(C(=O)CO)[C@@]3(C)C[C@H](O)[C@@]12F` [TRIAMCINOLONE] here?
A: Not Active

Q: And the IC50 [1]?
A: Not Active

Q: What about the Ki [1] of the same molecule?
A: Not Active

Q: And the IC50 [2]?
A: Not Active

Q: And the IC50 [3]?
A: Not Active

Q: What about the IC50 (Substance-P receptor) of the same molecule?
A: Not Active

Q: And the IC50 ([4]; cho-k1)?
A: Not Active

Q: What about the IC50 (Insulin receptor) of the same molecule?
A: Not Active

Q: What about the IC50 [5] of the same molecule?
A: Not Active

Q: And the Ki [5]?
A: Not Active

Q: What about the IC50 [6] of the same molecule?
A: Not Active

Q: What does the source list for `CC[C@]1(O)C[C@@H]2CN(CCc3c([nH]c4ccccc34)[C@@](C(=O)OC)(c3cc4c(cc3OC)N(C)[C@H]3[C@@](O)(C(N)=O)[C@H](O)[C@]5(CC)C=CCN6CC[C@]43[C@@H]65)C2)C1` [VINDESINE]?
A: IC50 (Caspase-1): Not Active; IC50 [1]: Not Active; Ki [1]: Not Active; IC50 [2]: Not Active; IC50 [3]: Not Active; IC50 (Substance-P receptor): Not Active; IC50 ([4]; cho-k1): Not Active; IC50 (Insulin receptor): Not Active; IC50 [5]: Not Active; Ki [5]: Not Active; IC50 [6]: Not Active

Q: Which results are given for `CCN(C(C)=O)c1cccc(-c2ccnc3c(C#N)cnn23)c1` [ZALEPLON]?
A: IC50 (Caspase-1): Not Active; IC50 [1]: Not Active; Ki [1]: Not Active; IC50 [2]: Not Active; IC50 [3]: Not Active; IC50 (Substance-P receptor): Not Active; IC50 ([4]; cho-k1): Not Active; IC50 (Insulin receptor): Not Active; IC50 [5]: Not Active; Ki [5]: Not Active; IC50 [6]: Not Active

Q: For COBALTOUS CHLORIDE, which IC50 (Caspase-1) is on record?
A: Not Active

Q: And the Ki (Caspase-1)?
A: Not Active

Q: What about the IC50 [1] of the same molecule?
A: Not Active

Q: What about the Ki [1] of the same molecule?
A: Not Active

Q: And the IC50 [2]?
A: Not Active

Q: What about the Ki [2] of the same molecule?
A: Not Active

Q: What about the IC50 [3] of the same molecule?
A: Not Active

Q: And the Ki [3]?
A: Not Active

Q: What about the IC50 (Substance-P receptor) of the same molecule?
A: Not Active

Q: What about the Ki (Substance-P receptor) of the same molecule?
A: Not Active

Q: And the IC50 ([4]; cho-k1)?
A: Not Active

Q: What about the Ki ([4]; cho-k1) of the same molecule?
A: Not Active

Q: What about the IC50 (Insulin receptor) of the same molecule?
A: Not Active

Q: And the Ki (Insulin receptor)?
A: Not Active

Q: And the IC50 [5]?
A: Not Active

Q: And the Ki [5]?
A: Not Active

Q: And the IC50 [6]?
A: Not Active

Q: And the Ki [6]?
A: Not Active

Q: Which results are given for COLISTIN?
A: IC50 (Caspase-1): Not Active; Ki (Caspase-1): Not Active; IC50 [1]: Not Active; Ki [1]: Not Active; IC50 [2]: Not Active; Ki [2]: Not Active; IC50 [3]: Not Active; Ki [3]: Not Active; IC50 (Substance-P receptor): Not Active; Ki (Substance-P receptor): Not Active; IC50 ([4]; cho-k1): Not Active; Ki ([4]; cho-k1): Not Active; IC50 (Insulin receptor): Not Active; Ki (Insulin receptor): Not Active; IC50 [5]: Not Active; Ki [5]: Not Active; IC50 [6]: Not Active; Ki [6]: Not Active
